Read-outs that look alike come from different tables or passages of the source.
Assays:
[1] = UV–vis spectra and optimal isomerization wavelengths; type: physicochemical; conditions: for λcis (optimal wavelength trans to cis) / λtrans (optimal wavelength cis to trans): UV–vis at 25–50 μM in DMSO, Teleopto plates (Table 1)
Description: Ultraviolet–visible (UV–vis) spectra were recorded using a Tecan Spark 20M Multimode Microplate reader. Samples (200 μL of compound solution/well) were prepared at […] in DMSO. Samples were measured between 300 and 800 nm with 2 nm fixed intervals in 96-well transparent plates. Illumination at different wavelengths was performed for 2 min using 96-well LED array plates (LEDA Teleopto) placed below the samples. […] Potencies were measured using a Thorlabs PM100D power energy meter connected with a standard photodiode power sensor (S120VC).

[2] = as above; type: physicochemical; conditions: 25–50 μM in DMSO, using CoolLed at 217 mW/cm^2 instead of Teleopto plates
HeLa cells = test: HeLa cell viability, MTS assay, dark or preillumination; type: cell-based; conditions: for IC50: Homo sapiens, HeLa; for IC50(dark)/IC50(light): Table 5; for viability decreasing to: under illumination
Description: We then proceeded to evaluate the effect of the compounds in a viability assay against HeLa cells.
(§1) HeLa, MCF7, and HT29 cells were maintained in adherent cultures in DMEM supplemented with 10% FBS. KG1 cells were maintained in a suspension culture in IMDM supplemented with 20% FBS.
Stock solutions of the compounds were heated to 60 or 80 °C to obtain solutions with the maximum amount of the trans isomer (dark). […] The solutions were then serially diluted with DMEM to give 20 times the desired final concentration, maintaining DMSO at 10%.
Cells were seeded in 96-well black flat bottom plates with a clear bottom at a density of 5 × 10^3 cells/well (HeLa) or 1 × 10^4 cells/well (MCF7, HT29, and KG1), in a volume of 95 μL.
(§2) Viability of HeLa, MCF7, and […] cells was determined with a CellTiter 96 assay (Promega), according to the manufacturer’s instructions. Briefly, 20 μL of CellTiter 96 reagent was added to each well, the plates were incubated at 37 °C for 2 h, and the absorbance at 490 nm was recorded. Viability is expressed as a percentage with respect to the nontreated cells.

[3] = cited from earlier work
HT29 cells = test: HT29 cell viability, MTS assay, 50 μM; type: cell-based; conditions: 48 h; for effect on viability when preilluminated: preilluminated (380 or 550 nm)
Description: (§3) HDACis have been proposed as a potential therapeutic strategy against cancer stem cells (CSCs).[39],[40] We selected three cell lines that have a strong CSC phenotype (HT29,[41],[42] MCF7[43]−[45] and KG1[46]) and tested the best compounds at 50 μM under dark and illumination conditions.
as §1
(§4) Stock solutions of the compounds were heated to 60 or 80 °C to obtain solutions with the maximum amount of the trans isomer (dark). For the “light” solutions, the stock solutions were illuminated with 96-well LED array plates for 3 min at the maximum potency. The solutions were then serially diluted with DMEM to give 20 times the desired final concentration, maintaining DMSO at 10%.
(§5) Cells were seeded in 96-well black flat bottom plates with a clear bottom at a density of 5 × 10^3 cells/well (HeLa) or 1 × 10^4 cells/well (MCF7, HT29, and KG1), in a volume of 95 μL. After 24 h, 5 μL of compound solutions (20×) were added. Cells were incubated for 48 h.
as §2

[4] = E/Z composition under light or temperature conditions by HPLC; type: physicochemical
KG1 cells = test: KG1 cell viability, CellTiterGlo assay, 50 μM; type: cell-based; conditions: 48 h; for effect on viability when preilluminated: preilluminated (380 or 550 nm)
Description: as §3, §1, §4, §5
Viability of KG1 cells was determined with a CellTiter-Glo (Promega) assay, according to the manufacturer’s instructions. Briefly, 100 μL of CellTiter-Glo reagent was added to each well, the plates were kept at room temperature for 10 min, and the luminescence was recorded. Viability is expressed as a percentage with respect to the nontreated cells.

human recombinant HDAC1 = target: T1, human recombinant HDAC1 (Homo sapiens, UniProt Q13547); test: Fluorogenic assay with human recombinant HDAC1, dark or illumination; type: biochemical; conditions: for activity at the highest tested concentration in the dark: 10 μM; for IC50 under illumination, in words: continuous illumination
T1 construct: purchased BPS Bioscience
T1 sequence (Q13547 whole entry): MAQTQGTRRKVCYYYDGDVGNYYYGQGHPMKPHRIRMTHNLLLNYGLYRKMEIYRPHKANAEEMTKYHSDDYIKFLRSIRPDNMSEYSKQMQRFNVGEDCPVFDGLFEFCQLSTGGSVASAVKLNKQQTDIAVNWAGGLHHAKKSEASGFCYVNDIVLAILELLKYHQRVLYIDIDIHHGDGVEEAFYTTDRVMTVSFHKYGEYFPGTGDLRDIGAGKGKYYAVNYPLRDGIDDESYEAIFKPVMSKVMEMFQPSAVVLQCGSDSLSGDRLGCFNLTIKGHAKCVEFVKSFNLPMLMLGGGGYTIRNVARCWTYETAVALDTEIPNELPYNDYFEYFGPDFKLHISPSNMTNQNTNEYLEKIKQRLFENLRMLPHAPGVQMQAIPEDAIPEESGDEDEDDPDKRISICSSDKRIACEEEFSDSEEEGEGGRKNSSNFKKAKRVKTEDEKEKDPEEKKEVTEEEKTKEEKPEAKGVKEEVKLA
Description: To study the inhibition of HDAC enzymes by the compounds, we used a fluorogenic assay with human recombinant HDAC1.[32] The enzyme was incubated with an acetylated substrate and each inhibitor for 1 h at room temperature, under either dark or light conditions. We opted for illumination throughout the incubation period to maintain the maximum proportion of cis under light conditions. […] Then, the deacetylated substrate generated a fluorescent coumarin after incubation of the mixture with trypsin at 37 °C for 20 min.
Stock solutions of the compounds were diluted to 1 mM in DMSO and then heated to 60 or 80 °C to obtain solutions with the maximum amount of the trans isomer (dark). […] The 1 mM solutions were then serially diluted with HDAC buffer to 10 times the desired concentration, maintaining DMSO at 10%.
In control wells without the compound, inhibitor, or enzyme, HDAC buffer was added instead. […] Then, 50 μL of the stop solution was added and the plates were incubated at 37 °C for 20 min in the dark. Fluorescence was measured at a λem of 460 nm and a λex of 380 nm. Enzyme activity is expressed as a percentage with respect to the nontreated cells, after subtracting the blank (well with no enzyme and no compound).

MCF7 cells = test: MCF7 cell viability, MTS assay, 50 μM; type: cell-based; conditions: 48 h; for effect on viability when preilluminated: preilluminated (380 or 550 nm)
Description: as §3, §1, §4, §5, §2

[5] = UV–vis spectra at 25–50 μM in DMSO (Table 1)
[6] = HPLC at isosbestic point (310–338 nm), 100 μM in DMSO after illumination with λcis (Table 1)
[7] = HPLC at isosbestic point (310–338 nm), 100 μM in DMSO after illumination with λtrans (Table 1)
[8] = dark vs 365 or 380 nm (Table 2), fold
[9] = dark, 1 h at room temperature (Table 2), read-out: IC50 dark
[10] = illumination 365 or 380 nm, 1 h at room temperature (Table 2), read-out: IC50 light
[11] = preillumination 380 nm, 48 h, read-out: IC50 light (concentration that reduces cell viability by half)
[12] = HPLC at isosbestic point (290–336 nm), 100 μM in DMSO after illumination with λcis (Table 3)
[13] = HPLC at isosbestic point (290–336 nm), 100 μM in DMSO after illumination with λtrans (Table 3)
[14] = UV–vis spectra at 25–100 μM in DMSO (Table 3)
[15] = continuous illumination 550 nm (Table 4), read-out: IC50 light
[16] = dark (Table 4), read-out: IC50 dark
[17] = preillumination 550 nm, 48 h, read-out: IC50 light (concentration that reduces cell viability by half)

| λmax trans [1, 5] [nm] | % cis at λcis [4, 6] [%] | IC50(dark)/IC50(light) (HeLa cells) | % cis at λcis [4, 12] [%] | % trans at λtrans [4, 13] [%] | λcis [1, 14] [nm] | λmax cis [1, 14] [nm] | λmax trans [1, 14] [nm] | λtrans [1, 14] [nm] | IC50(dark)/IC50(light) (human recombinant HDAC1; Table 4) | IC50 (human recombinant HDAC1; [15]) [µM] | IC50 (human recombinant HDAC1; [16]) [µM] | IC50 (HeLa cells; [17]) [µM] | SMILES | effect on viability in the dark (HT29 cells) | effect on viability when preilluminated (HT29 cells) | effect on viability in the dark (KG1 cells) | effect on viability when preilluminated (KG1 cells) | effect on viability in the dark (MCF7 cells) | effect on viability when preilluminated (MCF7 cells) | cell death under dark vs light conditions (HeLa cells; in words) | other results |
| --- | --- | --- | --- | --- | --- | --- | --- | --- | --- | --- | --- | --- | --- | --- | --- | --- | --- | --- | --- | --- | --- |
| – | – | >2.7 | 77 | 74 | 550 | 434 | 358 | 455 | >5.0 | 2 | > 10 | 37 | COc1cc(F)c(/N=N/c2c(F)cc(/C=C/C(=O)Nc3ccccc3N)cc2F)c(F)c1 [Compound 32a, (E)-N-(2-Aminophenyl)-3-(4-((E)-(2,6-difluoro-4-methoxyphenyl)diazenyl)-3,5-difluorophenyl)acrylamide] | little or no effect | significantly reduced the viability | little or no effect | significantly reduced the viability | little or no effect | significantly reduced the viability | inducing cell death only under light conditions | activity at the highest tested concentration in the dark (human recombinant HDAC1; dark): no or little activity; IC50 under illumination, in words (human recombinant HDAC1): low micromolar range |
| – | – | >2.7 | 68 | 85 | 550 | 442 | 358 | 455 | >2.6 | 3.9 | > 10 | 37 | COc1cc(F)c(/N=N/c2c(F)cc(/C=C/C(=O)Nc3ccccc3N)cc2Cl)c(Cl)c1 [Compound 32c, (E)-N-(2-Aminophenyl)-3-(3-chloro-4-((E)-(2-chloro-6-fluoro-4-methoxyphenyl)diazenyl)-5-fluorophenyl)acrylamide] | little or no effect | significantly reduced the viability | little or no effect | significantly reduced the viability | little or no effect | significantly reduced the viability | inducing cell death only under light conditions | activity at the highest tested concentration in the dark (human recombinant HDAC1; dark): no or little activity; IC50 under illumination, in words (human recombinant HDAC1): low micromolar range |
| – | – | >3.4 | 84 | 67 | 550 | 428 | 348 | 455 | ≈5.9 | 1.7 | ~10 | 29 | COc1cc(F)c(/N=N/c2c(F)cc(C(=O)Nc3ccccc3N)cc2F)c(F)c1 [Compound 38a, (E)-N-(2-Aminophenyl)-4-((2,6-difluoro-4-methoxyphenyl)diazenyl)-3,5-difluorobenzamide] | little or no effect | significantly reduced the viability | little or no effect | significantly reduced the viability | little or no effect | significantly reduced the viability | inducing cell death only under light conditions | IC50 (human recombinant HDAC1; supplementary CSV, read-out: HDAC1 IC50 dark): 10 µM; IC50 (HeLa cells; dark, 48 h, read-out: IC50 dark (concentration that reduces cell viability by half)): > 100 µM |

The remaining lines, values behind:

| SMILES | λmax trans [1, 5] [nm] | % cis at λcis [4, 6] [%] | IC50(dark)/IC50(light) (HeLa cells) | % cis at λcis [4, 12] [%] | % trans at λtrans [4, 13] [%] | λcis [1, 14] [nm] | λmax cis [1, 14] [nm] | λmax trans [1, 14] [nm] | λtrans [1, 14] [nm] | IC50(dark)/IC50(light) (human recombinant HDAC1; Table 4) | IC50 (human recombinant HDAC1; [15]) [µM] | IC50 (human recombinant HDAC1; [16]) [µM] | IC50 (HeLa cells; [17]) [µM] | effect on viability in the dark (HT29 cells) | effect on viability when preilluminated (HT29 cells) | effect on viability in the dark (KG1 cells) | effect on viability when preilluminated (KG1 cells) | effect on viability in the dark (MCF7 cells) | effect on viability when preilluminated (MCF7 cells) | cell death under dark vs light conditions (HeLa cells; in words) | other results |
| --- | --- | --- | --- | --- | --- | --- | --- | --- | --- | --- | --- | --- | --- | --- | --- | --- | --- | --- | --- | --- | --- |
| CN(C)c1ccc(/N=N/c2ccc(C(=O)Nc3ccccc3N)cc2)cc1 [Compound 2] | 450 | – | – | – | – | – | – | – | – | – | – | – | – | – | – | – | – | – | – | – | λcis [2]: 460^5 nm; λtrans [2]: 580^5 nm; activity under dark and illumination conditions (HeLa cells; in words): inactive; activation wavelength [3]: 470 nm; half-life ([3]; room temperature in PBS): 60 μs |
| COc1ccc(/N=N/c2ccc(/C=C/C(=O)Nc3ccccc3N)cc2)cc1 [Compound 11, (E)-N-(2-Aminophenyl)-3-(4-((E)-(4-methoxyphenyl)diazenyl)phenyl)acrylamide] | 378 | 80 | >8.3 | – | – | – | – | – | – | – | – | – | – | little or no effect | significantly reduced the viability | little or no effect | significantly reduced the viability | little or no effect | significantly reduced the viability | – | % trans at λtrans [4, 7]: 67%; stability after multiple cis/trans isomerization cycles ([1]; 25 μM in DMSO, 380–550 nm cycles, 2 min each): stable; λcis (optimal wavelength trans to cis) [1]: 380 nm; λtrans (optimal wavelength cis to trans) [1]: 550 nm; IC50(dark)/IC50(light) (human recombinant HDAC1; [8]): >50; IC50 (human recombinant HDAC1; [9]): > 10 µM; IC50 (human recombinant HDAC1; [10]): 0.2 µM; IC50 (HeLa cells; [11]): 12 µM; IC50 dark (concentration that reduces cell viability by half) (HeLa cells; dark, 48 h): no activity; viability decreasing to (HeLa cells; 48 h): 30% |
| COc1ccc(/N=N/c2ccc(/C=C/C(=O)Nc3cc(-c4cccs4)ccc3N)cc2)cc1 [Compound 20, (E)-N-(2-Amino-5-(thiophen-2-yl)phenyl)-3-(4-((E)-(4-methoxyphenyl)diazenyl)phenyl)acrylamide] | 378 | 63 | >14 | – | – | – | – | – | – | – | – | – | – | little or no effect | significantly reduced the viability | little or no effect | significantly reduced the viability | little or no effect | significantly reduced the viability | – | % trans at λtrans [4, 7]: 82%; λcis (optimal wavelength trans to cis) [1]: 380 nm; λtrans (optimal wavelength cis to trans) [1]: 550 nm; IC50(dark)/IC50(light) (human recombinant HDAC1; [8]): >29; IC50 (human recombinant HDAC1; [9]): > 10 µM; IC50 (human recombinant HDAC1; [10]): 0.35 µM; IC50 (HeLa cells; [11]): 7.4 µM; IC50 (HeLa cells; preillumination, 24 h, read-out: IC50 (365 nm, 24 h)): 13 µM; IC50 dark (concentration that reduces cell viability by half) (HeLa cells; dark, 48 h): no activity; viability decreasing to (HeLa cells; 48 h): 30% |
